Data set [1] relates to Spodoptera littoralis (Egyptian Cotton Leafworm). Put plainly: Example B1: activity against Spodoptera littoralis, sprayed cotton leaf discs, L1 larvae. Particulars: foliar, 72 h. It is filed as in vivo. The source says:
Activity Against Spodoptera littoralis (Egyptian Cotton Leafworm)
Cotton leaf discs are placed on agar in a 24-well microtiter plate and sprayed with test solutions. After drying, the leaf discs are infested with 5 L1 larvae. The samples are checked for mortality, repellent effect, feeding behaviour, and growth inhibition 3 days after treatment (DAT).

In data set [2] the test system is Heliothis virescens (Tobacco Budworm). In words: Example B2: activity against Heliothis virescens, eggs on artificial diet. The conditions noted are these: 96 h. It is filed as in vivo. How it is done: Activity Against Heliothis virescens (Tobacco Budworm)
Eggs (0-24 h old) are placed in 24-well microtiter plate on artificial diet and sprayed with test solutions. After an incubation period of 4 days, samples are checked for egg mortality, larval mortality, and growth inhibition.

Data set [3] deals with Plutella xvlostella (Diamond Back Moth). In words: Example B3: activity against Plutella xylostella, L2 larvae on artificial diet. It is filed as in vivo. The conditions noted are these: 120 h. How it is done: Activity Against Plutella xvlostella (Diamond Back Moth)
24-well microtiter plate (MTP) with artificial diet is sprayed with test solutions. After drying, the MTP's are infested with larvae (L2)(10-15 per well). After an incubation period of 5 days, samples are checked for larval mortality, antifeedant and growth inhibition.

The subject of data set [4] is Thrips tabaci (Onion Thrips). In words: Example B7: activity against Thrips tabaci, sunflower leaf discs. The conditions noted are these: foliar, 144 h. It is filed as in vivo. As to the method: Activity Against Thrips tabaci (Onion Thrips)
Sunflower leaf discs are placed on agar in a 24-well microtiter plate and sprayed with test solutions. After drying, the leaf discs are infested with a thrips population of mixed ages. After an incubation period of 6 days, samples are checked for mortality and special effects (e.g. phytotoxicity).

The test system of data set [5] is Spodoptera littoralis (Cotton Leafworm). In words: Example B9: systemic insecticide test for Spodoptera littoralis, maize seedlings at 12.5 ppm. It is filed as in vivo. As to the method:
(§1) Systemic Insecticide Test for Spodoptera littoralis (Cotton Leafworm)
[…] Seedlings are allowed to grow for six days. Subsequently leaves are cut and placed in a Petri dish (5 cm diameter), inoculated with twelve to fifteen 1st instar S. littoralis larvae and incubated for four days in a growth chamber (25° C., 50% r.h., 18:6 L:D photo period). Number of alive insects are counted and percentage of dead calculated. Tests were conducted with one replicate.

For data set [6], the system named is Cydia pomonella (Codling Moth). In words: Example B10: activity against Cydia pomonella, sprayed diet cubes. It is filed as in vivo. Particulars: 336 h. As to the method:
Activity Against Cydia pomonella (Codling Moth)
Standard Cydia diet cubes (1.5 cm width) are pierced with a tooth-pick and are immersed in liquid paraffin (ca. 80° C.). After the paraffin coat has hardened, an aqueous emulsion containing 12.5 ppm of active ingredient is applied using a De Vilbis sprayer (25 ml, 1 bar). After the spray coating has dried, the cubes are put into plastic containers which are then populated with two freshly hatched Cydia pomonella (1st instar). The containers are then closed with a plastic cap. After 14 days incubation at 26° C. and 40-60% relative humidity, the survival rate of the caterpillars as well as their growth regulation is determined.

Data set [7] has as its system Spodoptera littoralis (Cotton Leafworm). Put plainly: Example B11: systemic insecticide test for Spodoptera littoralis, comparison with prior art. It is filed as in vivo. Particulars: for mortality at 0.0125 ppm / mortality at 0.05 ppm: Spodoptera littoralis, 120 h, read-out: Mortality (%) after 5 days.
Text: as §1
[…] Seedlings are allowed to grow for six days. […] Number of alive insects are counted and percentage of dead calculated.

Data set [8] relates to Frankliniella occidentalis (Western Flower Thrips). Put plainly: Example B12: activity against Frankliniella occidentalis, sprayed bean plants, comparison with prior art. It is filed as in vivo. The conditions noted are these: for inhibition at 12.5 ppm / inhibition at 25 ppm / inhibition at 50 ppm: Frankliniella occidentalis, 288 h, reduction of treated population vs non treated, read-out: Activity (%) after 12 days. As to the method: Activity Against Frankliniella occidentalis (Western Flower Thrips)
Bean plants are treated in a spray chamber with diluted test solutions. After drying they are infested with mixed population. 12 days after the infestation, samples are checked for reduction of treated population and compared to the non treated population.

The subject of data set [9] is Diabrotica balteata (Corn Root Worm). Put plainly: Example B4: activity against Diabrotica balteata, L2 larvae on artificial diet. It is filed as in vivo. Particulars: 120 h, 5 days incubation, read-out: activity (sentence prints only 'over 80%'). How it is done: Activity Against Diabrotica balteata (Corn Root Worm)
24-well microtiter plate (MTP) with artificial diet is sprayed with test solutions. After drying, the MTP's are infested with larvae (L2)(6-10 per well). After an incubation period of 5 days, samples are checked for larval mortality, antifeedant and growth inhibition.

Data set [10] deals with Mvzus persicae (Green Peach Aphid). In words: Example B5: activity against Myzus persicae (contact), sunflower leaf discs. Particulars: foliar, 144 h. It is filed as in vivo. As to the method:
Activity Against Mvzus persicae (Green Peach Aphid): (Contact)
Sunflower leaf discs are placed on agar in a 24-well microtiter plate and sprayed with test solutions. After drying, the leaf discs are infested with an aphid population of mixed ages. After an incubation period of 6 DAT, samples are checked for mortality and special effects (e.g. phytotoxicity).

Data set [11] relates to Myzus persicae (Green Peach Aphid). Put plainly: Example B6: activity against Myzus persicae (systemic), pea seedling roots in test solution. It is filed as in vivo. The conditions noted are these: 144 h. The source says:
Activity Against Myzus persicae (Green Peach Aphid): (Systemic)
Roots of pea seedlings, infested with an aphid population of mixed ages, are placed directly in the test solutions. 6 days after introduction, samples are checked for mortality and special effects on the plant.

Setting [12] is: 200 ppm, 3 days after treatment, L1 larvae on cotton leaf discs, read-out: mortality.
The mark [13] stands for this setting: 200 ppm, 4 days incubation, eggs on artificial diet, read-out: mortality.
The mark [14] stands for this setting: 200 ppm, 5 days incubation, L2 larvae, read-out: mortality.
The mark [15] stands for this setting: 12.5 ppm in water, systemic via maize seedlings, one replicate, read-out: mortality.

Like-named read-outs stand apart in the source and are kept apart here.

As usually defined, the melting point is the temperature, or range, at which the solid turns liquid. In the case of `Cc1cc(Cl)cc(C(=O)NC(C)(C#N)C2CC2)c1NC(=O)c1cc(OC(F)F)nn1-c1ncccc1Cl` (stereo not shown), the melting point lay in the range of 197 to 198 °C.
On the same count and under the same terms, to `Cc1cc(I)cc(C(=O)NC(C)(C#N)C2CC2)c1NC(=O)c1cc(OC(F)F)nn1-c1ncccc1Cl` (stereo not shown) belongs 203 to 204 °C.
As a reminder, the mortality is the percentage killed. For `Cc1cc(Cl)cc(C(=O)NC(C)(C#N)C2CC2)c1NC(=O)c1cc(C(F)(F)F)nn1-c1ncccc1Cl` (single isomer, unassigned) [Compound T1.1.49a], the mortality at 200 ppm in data set [1] (setting [12]) was greater than 80%; in [2] (setting [13]), greater than 80%; in data set [3] (setting [14]) it was greater than 80%; in data set [4] (200 ppm, 6 days incubation, mixed ages, read-out: mortality), greater than 80%. The mortality at 12.5 ppm in data set [5] (setting [15]) is greater than 80%; in [6] (12.5 ppm, 14 days incubation at 26° C., read-out: mortality), greater than 80%.
With `Cc1cc(Cl)cc(C(=O)NC(C#N)C2CC2)c1NC(=O)c1cc(C(F)(F)F)nn1-c1ncccc1Cl` (stereo not shown) [A.1.346, reference compound], in data set [7], the mortality at 0.0125 ppm was 0% and the mortality at 0.05 ppm stood at 100%. Also, in data set [8], the inhibition at 12.5 ppm is 0%, the inhibition at 25 ppm worked out at 0% and the inhibition at 50 ppm was determined as 0%.
On to `Cc1cc(Cl)cc(C(=O)NC(C)(C#N)C2CC2)c1NC(=O)c1cc(C(F)(F)F)nn1-c1ncccc1Cl` (stereo not shown) [Compound T1.1.49, 2-(3-chloro-pyridin-2-yl)-5-trifluoromethyl-2H-pyrazole-3-carboxylic acid {4-chloro-2-[(cyano-cyclopropyl-methyl-methyl)-carbamoyl]-6-methyl-phenyl}-amide], for which the mortality at 200 ppm in [1], in [2], in data set [3], in [10] and in data set [4] was greater than 80% throughout. Besides, the pest or weed control at 200 ppm in data set [9] was greater than 80%. Besides, the mortality at 12.5 ppm in data set [5] and in [6] was greater than 80% in each case. Besides, the mortality at 0.0125 ppm in data set [7] is 93%. The mortality at 0.05 ppm in data set [7] amounted to 100%. For the same molecule, the “insecticidal action compared with the compound from the state of the art (A.1.346)” value in [7] (Table B11) is “substantially better insecticidal action”; in [8] (Table B12, 50, 25 and 12.5 ppm), “substantially better insecticidal action”. Moreover, the inhibition at 12.5 ppm in data set [8] turned out to be 75%. Further, in data set [8], the inhibition at 25 ppm stood at 85%. Moreover, the inhibition at 50 ppm in data set [8] worked out at 90%.
For `Cc1cc(Cl)cc(C(=O)NC(C)(C#N)C2CC2)c1NC(=O)c1cc(Br)nn1-c1ncccc1Cl` (stereo not shown) [Compound T1.1.50], the mortality at 200 ppm in data set [1], in [2], in data set [3] and in data set [4] was greater than 80% in each case. Further, the pest or weed control at 200 ppm in data set [9] is greater than 80%. The mortality at 12.5 ppm in [11], in data set [5] and in data set [6] was greater than 80% each time.
Consider `Cc1cc(Cl)cc(C(=O)NC(C)(C#N)C2CC2)c1NC(=O)c1cc(Cl)nn1-c1ncccc1Cl` (stereo not shown) [Compound T1.1.51], for which the mortality at 200 ppm in data set [1], in data set [2], in data set [3] and in data set [4] was greater than 80% in each case. The pest or weed control at 200 ppm in [9] was greater than 80%. The mortality at 12.5 ppm in [5] and in [6] was greater than 80% in each case.
As to `Cc1cc(Cl)cc(C(=O)NC(C)(C#N)C2CC2)c1NC(=O)c1cc(C(F)F)nn1-c1ncccc1Cl` (stereo not shown) [Compound T1.1.52], the mortality at 200 ppm in data set [1], in data set [2], in [3], in data set [10] and in data set [4] was greater than 80% in each case. For the same molecule, the pest or weed control at 200 ppm in data set [9] is greater than 80%. In addition, the mortality at 12.5 ppm in data set [11], in data set [5] and in data set [6] was greater than 80% each time.
As to `Cc1cc(Cl)cc(C(=O)NC(C)(C#N)C2CC2)c1NC(=O)c1cc(OCC(F)(F)F)nn1-c1ncccc1Cl` (stereo not shown) [Compound T1.1.53], the mortality at 200 ppm in [1], in data set [2] and in [3] was greater than 80% throughout. Moreover, the pest or weed control at 200 ppm in data set [9] is greater than 80%. The mortality at 12.5 ppm in data set [5] and in [6] was greater than 80% throughout.
Regarding `COc1cc(C(=O)Nc2c(C)cc(Cl)cc2C(=O)NC(C)(C#N)C2CC2)n(-c2ncccc2Cl)n1` (stereo not shown) [Compound T1.1.55], the mortality at 200 ppm in [1], in data set [2] and in data set [3] was greater than 80% in each case. Further, the pest or weed control at 200 ppm in [9] is greater than 80%. The mortality at 12.5 ppm in data set [11] and in data set [5] was greater than 80% each time.
Consider `Cc1cc(I)cc(C(=O)NC(C)(C#N)C2CC2)c1NC(=O)c1cc(C(F)(F)F)nn1-c1ncccc1Cl` (stereo not shown) [Compound T1.1.105], for which the mortality at 200 ppm in data set [1], in [2], in [3], in data set [10] and in [4] was greater than 80% in each case. For the same molecule, in [9], the pest or weed control at 200 ppm was greater than 80%. Moreover, the mortality at 12.5 ppm in data set [5] and in data set [6] was greater than 80% in each case.
Regarding `Cc1cc(I)cc(C(=O)NC(C)(C#N)C2CC2)c1NC(=O)c1cc(Br)nn1-c1ncccc1Cl` (stereo not shown) [Compound T1.1.106], the mortality at 200 ppm in data set [1], in data set [2] and in data set [3] was greater than 80% throughout. Moreover, in data set [9], the pest or weed control at 200 ppm is greater than 80%. Also, the mortality at 12.5 ppm in data set [5] is greater than 80%.
`Cc1cc(I)cc(C(=O)NC(C)(C#N)C2CC2)c1NC(=O)c1cc(C(F)F)nn1-c1ncccc1Cl` (stereo not shown) [Compound T1.1.108]: the mortality at 200 ppm in data set [1], in [2], in data set [3] and in data set [4] was greater than 80% each time. In data set [9], the pest or weed control at 200 ppm was greater than 80%.
Regarding `COc1cc(C(=O)Nc2c(C)cc(I)cc2C(=O)NC(C)(C#N)C2CC2)n(-c2ncccc2Cl)n1` (stereo not shown) [Compound T1.1.111], the mortality at 200 ppm in data set [1] (setting [12]), in data set [2] (setting [13]) and in [3] (setting [14]) was greater than 80% throughout. Moreover, in data set [5] (setting [15]), the mortality at 12.5 ppm is greater than 80%.
Turning to `Cc1cc(Cl)cc(C(=O)NC(C)(C#N)C2CCC2)c1NC(=O)c1cc(C(F)(F)F)nn1-c1ncccc1Cl` (stereo not shown) [Compound T2.1.49], the mortality at 200 ppm in [1], in data set [2] and in data set [3] was greater than 80% in each case. Further, the pest or weed control at 200 ppm in data set [9] is greater than 80%. The molecule further gave a mortality at 12.5 ppm in data set [11] greater than 80%.

Values taken from patent publication US8501950B2, “N-cyanoalkylanthranilamides as insecticides” (Syngenta Crop Protection LLC, priority 2006, dated 2013).
